Here are results for 16 compounds from PubChem BioAssay AID328 (DTP/NCI, 2004).

Where “and” joins values, the source holds several entries; their conditions need not be identical. Equal entries are not always repeated. Inconclusive results and toxic doses are left out.

The test has as its system BDF1 mice, P388 leukemia ip, median survival T/C. The test can be described thus: NCI In Vivo Anticancer Drug Screen. Data for tumor model P388 Leukemia (intraperitoneal) in B6D2F1 (BDF1) mice. As to conditions: endpoint: median survival time, higher = longer survival. The essentials:
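Mice carrying the transplantable tumour receive compound or vehicle. Survival is followed in each arm, and the treated measure is divided by the vehicle measure.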

Setting [1] is: dose: 25.0 mg/kg/injection, schedule: Q01DX009 (ip), vehicle: Klucel (hydroxypropylcellulose) (HPC).
Where [2] appears, read: dose: 50.0 mg/kg/injection, schedule: Q01DX009 (ip), vehicle: Klucel (hydroxypropylcellulose) (HPC).
The mark [3] stands for this setting: dose: 100.0 mg/kg/injection, schedule: Q01DX009 (ip), vehicle: saline with Tween-80.
Setting [4] is: dose: 200.0 mg/kg/injection, schedule: Q01DX009 (ip), vehicle: saline with Tween-80.
The mark [5] stands for this setting: dose: 6.25 mg/kg/injection, schedule: Q01DX009 (ip), vehicle: Klucel (hydroxypropylcellulose) (HPC).
[6] abbreviates: dose: 12.5 mg/kg/injection, schedule: Q01DX009 (ip), vehicle: Klucel (hydroxypropylcellulose) (HPC).
[7] abbreviates: dose: 50.0 mg/kg/injection, schedule: Q01DX009 (ip), vehicle: saline.
Setting [8] is: dose: 200.0 mg/kg/injection, schedule: Q01DX009 (ip), vehicle: saline.
The mark [9] stands for this setting: dose: 50.0 mg/kg/injection, schedule: Q01DX009 (ip), vehicle: saline with Tween-80.

As for `O=C(CCl)Nc1cc(Cl)ccc1N1CCCC1`, the T/C (dose: 12.5 mg/kg/injection, schedule: Q01DX001 (ip), vehicle: Klucel (hydroxypropylcellulose) (HPC)) is 118 % of control; the T/C (dose: 12.5 mg/kg/injection, schedule: Q04DX003 (ip), vehicle: Klucel (hydroxypropylcellulose) (HPC)) is 90 % of control; the T/C (dose: 25.0 mg/kg/injection, schedule: Q01DX001 (ip), vehicle: Klucel (hydroxypropylcellulose) (HPC)) is 104 % of control; the T/C under setting [1] is 95 % of control; the T/C (dose: 25.0 mg/kg/injection, schedule: Q04DX003 (ip), vehicle: Klucel (hydroxypropylcellulose) (HPC)) was 104 % of control; the T/C (dose: 50.0 mg/kg/injection, schedule: Q01DX001 (ip), vehicle: Klucel (hydroxypropylcellulose) (HPC)) is 104 % of control. The T/C under setting [2] was 90 % of control; the T/C (dose: 50.0 mg/kg/injection, schedule: Q04DX003 (ip), vehicle: Klucel (hydroxypropylcellulose) (HPC)) is 104 % of control; the T/C (dose: 75.0 mg/kg/injection, schedule: Q01DX001 (ip), vehicle: Klucel (hydroxypropylcellulose) (HPC)) was 95 % of control; the T/C (dose: 115.0 mg/kg/injection, schedule: Q01DX001 (ip), vehicle: Klucel (hydroxypropylcellulose) (HPC)) is 95 % of control.

On to `CCN(CC)CCC1(C(N)=O)Cc2ccccc2N(CC)c2ccccc21` (configuration not stated), for which the T/C under setting [3] was 100 % of control and the T/C under setting [4] was 100 % of control.

In the case of `N#CSc1ccc(Nc2ccc(SC#N)cc2)cc1`, the T/C by setting is: under setting [5], 100 % of control; under setting [6], 100 % of control; under setting [1], 118 % of control; (dose: 35.0 mg/kg/injection, schedule: Q01DX009 (ip), vehicle: Klucel (hydroxypropylcellulose) (HPC)) 108 % of control; under setting [2], 109 % of control; (dose: 53.0 mg/kg/injection, schedule: Q01DX009 (ip), vehicle: Klucel (hydroxypropylcellulose) (HPC)) 105 % of control. In addition, the T/C (dose: 80.0 mg/kg/injection, schedule: Q01DX009 (ip), vehicle: Klucel (hydroxypropylcellulose) (HPC)) is 109 % of control and 110 % of control; the T/C (dose: 120.0 mg/kg/injection, schedule: Q01DX009 (ip), vehicle: Klucel (hydroxypropylcellulose) (HPC)) is 120 % of control and 122 % of control.

As for `Cc1ccc(S(=O)(=O)N/N=C/C(Br)=C(/Br)C(=O)O)cc1`, the T/C under setting [5] was 119 % of control; the T/C under setting [6] is 124 % of control; the T/C under setting [2] was 155 % of control; the T/C (dose: 100.0 mg/kg/injection, schedule: Q01DX009 (ip), vehicle: Klucel (hydroxypropylcellulose) (HPC)) is 153 % of control.

In the case of `COC(C/C=C\C=C\CC/C=C/CC(C)/C=C/C(=C\C(=O)O)CC(=O)O)/C(C)=C\C=C(/C)C(=O)O` (configuration not stated), the T/C is 100 % of control (dose: 1.0 mg/kg/injection, schedule: Q04DX003 (ip), vehicle: saline); 88 % of control (dose: 2.0 mg/kg/injection, schedule: Q04DX003 (ip), vehicle: saline); 87 % of control (dose: 4.0 mg/kg/injection, schedule: Q01DX009 (ip), vehicle: saline); 94 % of control (dose: 4.0 mg/kg/injection, schedule: Q04DX003 (ip), vehicle: saline); 100 % of control (dose: 6.0 mg/kg/injection, schedule: Q04DX003 (ip), vehicle: saline); 87 % of control (dose: 8.0 mg/kg/injection, schedule: Q01DX009 (ip), vehicle: saline). The T/C reads like this: (dose: 8.0 mg/kg/injection, schedule: Q04DX003 (ip), vehicle: saline) 108 % of control; (dose: 16.0 mg/kg/injection, schedule: Q01DX009 (ip), vehicle: saline) 100 % of control; (dose: 16.0 mg/kg/injection, schedule: Q04DX003 (ip), vehicle: saline) 95 % of control.

Turning to `CS(=O)(=O)Nc1ccc(C(=O)CCN2CCCCCC2)cc1`, the T/C runs as follows: (dose: 25.0 mg/kg/injection, schedule: Q01DX009 (ip), vehicle: saline) 108 % of control and 110 % of control; under setting [7], 110 % of control and 112 % of control and 113 % of control; (dose: 100.0 mg/kg/injection, schedule: Q01DX009 (ip), vehicle: saline) 117 % of control; under setting [8], 117 % of control.

As for `CC(=O)Nc1ccc2cnn(C(C)=O)c2c1`, the T/C is 89 % of control (dose: 25.0 mg/kg/injection, schedule: Q01DX009 (ip), vehicle: water); 86 % of control (dose: 50.0 mg/kg/injection, schedule: Q01DX009 (ip), vehicle: water); 113 % of control (dose: 50.0 mg/kg/injection, schedule: Q04DX003 (ip), vehicle: water); 88 % of control (dose: 100.0 mg/kg/injection, schedule: Q01DX009 (ip), vehicle: water); 111 % of control (dose: 100.0 mg/kg/injection, schedule: Q04DX003 (ip), vehicle: water); 92 % of control (dose: 200.0 mg/kg/injection, schedule: Q01DX009 (ip), vehicle: water). In addition, the T/C is, setting by setting: (dose: 200.0 mg/kg/injection, schedule: Q04DX003 (ip), vehicle: water) 97 % of control; (dose: 400.0 mg/kg/injection, schedule: Q01DX009 (ip), vehicle: water) 91 % of control; (dose: 400.0 mg/kg/injection, schedule: Q04DX003 (ip), vehicle: water) 97 % of control.

On to `Cc1cc(NC(=O)Nc2ccc(Cl)cc2)no1`, for which the T/C is 100 % of control under setting [9], 100 % of control under setting [3] and 100 % of control under setting [4].

Consider `CC1c2ccccc2N(S(=O)(=O)c2ccccc2)C1C` (configuration not stated), for which the T/C by setting is: (dose: 100.0 mg/kg/injection, schedule: Q01DX009 (ip), vehicle: gum acacia) 107 % of control; (dose: 200.0 mg/kg/injection, schedule: Q01DX009 (ip), vehicle: gum acacia) 92 % of control; (dose: 400.0 mg/kg/injection, schedule: Q01DX009 (ip), vehicle: gum acacia) 100 % of control.

Regarding `COC(CCC#N)c1ccc(C)cc1` (configuration not stated), the T/C was 100 % of control (dose: 25.0 mg/kg/injection, schedule: Q04DX003 (sc), vehicle: olive oil, sesame oil, peanut oil); 95 % of control (dose: 50.0 mg/kg/injection, schedule: Q04DX003 (sc), vehicle: olive oil, sesame oil, peanut oil); 100 % of control (dose: 100.0 mg/kg/injection, schedule: Q04DX003 (sc), vehicle: olive oil, sesame oil, peanut oil).

With `Cc1cccc(Nc2sc(C(=O)c3cc4cc(Cl)ccc4o3)c(N)c2C#N)c1`, the T/C runs as follows: under setting [9], 108 % of control; under setting [3], 102 % of control; under setting [4], 111 % of control.

For the compound `C=C1CCC2(C)C(O)CC3(C)C(CCC4C5(C)CCC(OC(C)=O)C(C)(C)C5CCC43C)C2C1C` (configuration not stated), the T/C runs as follows: (dose: 1.0 mg/kg/injection, schedule: Q01DX009 (ip), vehicle: saline + alcohol) 97 % of control; (dose: 2.0 mg/kg/injection, schedule: Q01DX009 (ip), vehicle: saline + alcohol) 106 % of control; (dose: 4.0 mg/kg/injection, schedule: Q01DX009 (ip), vehicle: saline + alcohol) 92 % of control.

Consider `NC(=O)c1csc(C2OC(CO)C(O)C2O)n1` (configuration not stated), for which the T/C was 213 % of control (dose: 330.0 mg/kg/injection, schedule: Q01DX009 (ip), vehicle: water); 243 % of control (dose: 500.0 mg/kg/injection, schedule: Q01DX009 (ip), vehicle: water); 277 % of control (dose: 750.0 mg/kg/injection, schedule: Q01DX009 (ip), vehicle: water).

Turning to `CC(CC(O)C(C)(C)C)C(C)(C)C` (configuration not stated), the T/C was 117 % of control (dose: 12.5 mg/kg/injection, schedule: Q01DX009 (ip), vehicle: saline with Tween-80); 110 % of control (dose: 25.0 mg/kg/injection, schedule: Q01DX009 (ip), vehicle: saline with Tween-80); 117 % of control under setting [9].

Turning to `CC(=O)CC(=O)Nc1nc2ccccc2s1`, the T/C under setting [7] is 94 % of control and the T/C under setting [8] is 105 % of control.

In the case of `COc1cc(C2=CC(OC)(OC)C=C(C(C)(C)C)C2=O)c(O)c(C(C)(C)C)c1`, the T/C was 105 % of control under setting [9], 108 % of control under setting [3] and 112 % of control under setting [4].
